The text below walks through data of US4940789A, “10,11-dihydro-5-alkyl-12-substituted-10,5-(iminomethano)-5H-d ibenzo[a,d]cycloheptenes as neuroprotectant agents” (priority 1989, dated 1990).

Structures are written as SMILES. Like-named read-outs stand apart in the source and are kept apart here. A value given as a limit tells only on which side of the number the result lay.

Series [1] in a line: Traction reflex deficit (ataxia) in mice. The following applies: mouse, in vivo, ip, I.P., read-out: TD50 - Traction Reflex Deficit, I.P. (dose which produced the deficit in 50% of animals tested). From the text:
In fact, the separation between a compounds's NMDA-antagonist activity and ataxic activity (often expressed as an "efficacy ratio" of the ED50 's of these two activities) has been extensively used to evaluate its therapeutic usefulness versus its liabilities.
^@ As measured in mice. Defined as the dose which produced the defici

Another series deals with NMDA-induced lethality. The series can be described thus: NMDA-induced lethality in mice (survival; standard experimental test procedure). The format is in vivo, male Swiss-albino mice (CD-1 strain). The following applies: for ED50: Mus musculus, 0.5 h; for ED50 / ED50 Inhibition of NMDA-Induced Lethality, I.P. (dose required to produce 50% survival rate): NMDA 195 mg/kg i.p., 30 min pretreatment; for IP/PO Ratio: ED50 inhibition of NMDA-induced lethality, I.P. over P.O.; for Percent of animals which survived at the dose indicated (NMDA-induced lethality): I.P.; for Relative potency, antagonism of NMDA-induced lethality vs ataxia (in words): traction reflex deficit model. The procedure: The mice were pretreated with the representative test compounds followed thirty minutes later with NMDA (195 mg/kg, i.p., the ED90 dose for generalized myoclonus). The mice were then observed for 30 minutes, noting the latency of onset of generalized myoclonus (uncontrollable hind leg scratching or limbs and/or torso muscle jerking with loss of righting reflex) and death. From the latter, the ED50 for survival is determined. In this standard experimental test procedure, the specific compounds tested and their activity, which representatively establish the activity for all the compounds herein, is presented in Table I as follows: […]

Series [2] relates to high-affinity PCP binding site in the NMDA-associated ion channel. The following applies: result in words; cited from earlier work.
The conditions of series [3]: result in words; cited from earlier work.
The subject of series [4] is cell death in cerebral ischemia models. The following applies: result in words; cited from earlier work.
Where [5] appears, read: ip, intraperitoneal injection, read-out: ED50 Inhibition of NMDA-Induced Lethality, I.P. (dose required to produce 50% survival rate).

With `COc1ccc2c(c1)[C@]13CCCC[C@@H]1[C@H](C2)N(C)CC3` [Dextromethorphan, reference compound], in series [1], the TD50 was determined as 45 mg/kg. Moreover, the ED50 in the series on NMDA-induced lethality (setting [5]) came out at 21 mg/kg.
As for `CN1CC[C@@]23CCCC[C@@H]2[C@@H]1Cc1ccc(O)cc13` [Dextrorphan, dextrorphan, reference compound], the TD50 in series [1] was 29 mg/kg. In addition, the “Efficacy ratio for antagonizing NMDA-induced lethality over ataxia (in words)” value with NMDA-induced lethality (comparison with reference NMDA antagonists) is listed as “essentially the same as that for dextromethorphan”. Moreover, the “ED50 Inhibition of NMDA-Induced Lethality, I.P. (dose required to produce 50% survival rate)” value in the series with NMDA-induced lethality (intraperitoneal injection) worked out at 13 mg/kg.
Regarding `CN1CC2(C)c3ccccc3CC1c1ccccc12` (stereo not shown) [Example 1, 10,11-Dihydro-5,12-dimethyl-10,5-(iminomethano)-5H-dibenzo[a,d]cycloheptene], the TD50 in series [1] is 13 mg/kg. The ED50 in the series with NMDA-induced lethality (setting [5]) is 3.1 mg/kg.
Take `CC12CN(CCc3ccccn3)C(Cc3ccccc31)c1ccccc12` (stereo not shown) [Example 2, 10,11-Dihydro-5-methyl-12-[2-(2-pyridinyl)ethyl]10,5-(iminomethano)-5H-dibenzo[a,d]cycloheptene]: in series [1], the TD50 was found to be 67 mg/kg. For the same compound, the “IP/PO Ratio” value with NMDA-induced lethality was 0.57. In addition, the 50% effective dose (ED50) in the series with NMDA-induced lethality (setting [5]) turned out to be 9.8 mg/kg.
In the case of `CC12CN(CCc3ccncc3)C(Cc3ccccc31)c1ccccc12` (stereo not shown) [Example 3, 10,11-Dihydro-5-methyl-12-[2-(4-pyridinyl)ethyl]10,5-(iminomethano)-5H-dibenzo[a,d]cycloheptene], the TD50 in series [1] stood at 83 mg/kg. Further, in the series on NMDA-induced lethality (setting [5]), the ED50 came out at 18 mg/kg.
On to `CC12CN(CCc3cnccn3)C(Cc3ccccc31)c1ccccc12` (stereo not shown) [Example 4, 10,11-Dihydro-5-methyl-12-(2-pyrazinylethyl)-10,5-(iminomethano)-5H-dibenzo-cycloheptene], for which, in series [1], the TD50 came to 30 mg/kg. The median effective dose (ED50) in the series on NMDA-induced lethality (setting [5]) was 12 mg/kg.
Turning to `CN(C)CCCN1CC2(C)c3ccccc3CC1c1ccccc12` (stereo not shown) [Example 5, 10,11-Dihydro-N,N,5-trimethyl-10,5-(iminomethano)-5H-dibenzo[a,d]cycloheptene-12-propanamine], the “Percent of animals which survived at the dose indicated (NMDA-induced lethality)” value (“Percent of animals which survived” for short) with NMDA-induced lethality (at 100 mg/g (so in the source)) is 66%.
Turning to `CC12CN(Cc3ccccn3)C(Cc3ccccc31)c1ccccc12` (stereo not shown) [Example 6, 10,11-Dihydro-5-methyl-12-(2-pyridinylmethyl)-10,5-(iminomethano)-5H-dibenzo[a,d]cycloheptene], in the series with NMDA-induced lethality (at 20 mg/kg), the “Percent of animals which survived” value is listed as 66%.
Regarding `CC12CN(CCc3ccc4ccccc4n3)C(Cc3ccccc31)c1ccccc12` (stereo not shown) [Example 7, 10,11-Dihydro-5-methyl-12-[2-(2-quinolinyl)ethyl]-10,5-(iminomethano)-5H-dibenzo[a,d]cycloheptene], the ED50 in the series on NMDA-induced lethality (setting [5]) was over 20 mg/kg.
For the compound `Cc1cccc(CCN2CC3(C)c4ccccc4CC2c2ccccc23)n1` (stereo not shown) [Example 8, 10,11-Dihydro-5-methyl-12-[2-(6-methyl-2-pyridinyl)ethyl]-10,5-(iminomethano)-5H-dibenzo[a,d]cycloheptene], the TD50 in series [1] stood at 68 mg/kg. Further, the ED50 in the series on NMDA-induced lethality (setting [5]) was 13 mg/kg.
For the compound `CC12CN(CCc3ccccc3)C(Cc3ccccc31)c1ccccc12` (stereo not shown) [Example 9, 10,11-Dihydro-5-methyl-12-(2-phenylethyl)-10,5-(iminomethano)-5H-dibenzo[a,d]cycloheptene], in the series on NMDA-induced lethality (at 20 mg/kg), the “Percent of animals which survived” value was 17%.
Regarding `CC(C)N1CC2(C)c3ccccc3CC1c1ccccc12` (stereo not shown) [Example 10, 10,11-Dihydro-5-methyl-12-(2-propyl)-10,5-(iminomethano)-5H-dibenzo[a,d]cycloheptene], the “Percent of animals which survived” value in the series with NMDA-induced lethality (at 10 mg/kg) amounted to 100%.
Still for that read-out and setting: the figure for `CC(=O)N1CC2(C)c3ccccc3CC1c1ccccc12` (stereo not shown) [Example 11, 10,11-Dihydro-5-methyl-10,5-(iminomethano)-5H-dibenzo[a,d]cycloheptene-12-acetamide] is 10%.
Regarding `C[C@]12N[C@H](Cc3ccccc31)c1ccccc12` [MK-801, reference compound], in series [2], the “Competition for the high-affinity PCP binding site” value is “competes for the high-affinity PCP binding site”. Moreover, in series [1], the TD50 turned out to be 0.17 mg/kg. Further, the “Generalization for PCP in drug discrimination” value in series [3] was “generalizes for PCP”. The “Protection against cell death in cerebral ischemia models” value in series [4] is given as “protects against cell death in cerebral ischemia models”. For the same compound, in the series with NMDA-induced lethality, the “IP/PO Ratio” value came out at 0.58 and the “Relative potency, antagonism of NMDA-induced lethality vs ataxia (in words)” value was “no separation”. The ED50 in the series with NMDA-induced lethality (oral administration, read-out: ED50 Inhibition of NMDA-Induced Lethality, P.O. (dose required to produce 50% survival rate)) was determined as 0.32 mg/kg. Moreover, in the series with NMDA-induced lethality (setting [5]), the ED50 came to 0.19 mg/kg.
As for `c1ccc(C2(N3CCCCC3)CCCCC2)cc1` [PCP, phencyclidine, reference compound], in series [1], the TD50 is 2.7 mg/kg. In series [4], the “Protection against cell death in cerebral ischemia models” value is recorded as “protects against cell death in cerebral ischemia models”. Also, the “ED50 Inhibition of NMDA-Induced Lethality, I.P. (dose required to produce 50% survival rate)” value with NMDA-induced lethality (intraperitoneal injection) came out at 1.9 mg/kg. For the same compound, the “Relative potency, antagonism of NMDA-induced lethality vs ataxia (in words)” value with NMDA-induced lethality was “approximately equipotent”.

For orientation: TD50 means the dose at which the toxic effect under study appears in half of the subjects. Broadly, the ED50 is the dose at which the effect has come halfway, by size or by number of responders.
